# Columns and labels:
# [1] = tested on: glutathionylspermidine synthetase (GspS); test: Malachite green colorimetric assay for liberation of inorganic phosphate; assay type: biochemical, C. fasciculata; conditions: ADP 0-10 mM at ATP 0.2-5 mM; competitive with respect to ATP
# Protocol: FIG. 9. Malachite green colorimetric assay for liberation of inorganic phosphate. The malachite green calorimetric assay for liberation of inorganic phosphate (1) was used for fast detection of GspS activity.
# The standard assay was carried out at 25.0° C. in a volume of 0.15 ml containing 50 mM Bis-Tris-propane, 50 mM Tris, pH 7.5, 5 mM MgSO4, 1 mM EDTA, 5 mM DTT, 5 mM ATP, 10 mM GSH, 10 mM spermidine, and GspS. After an incubation of 10 min the malachite green reagent was added for detection of GspS activity.
# Concentration of ATP (see heading) and ADP (see table).
# The liberation of inorganic phosphate from ATP can be easily visualized by malachite green (FIG. 9). The test is amply used to monitor ATP hydrolyzing activities and is correspondingly unspecific. […] This finding enabled us to use this fast and convenient test to measure specifically GspS activity which is accompanied by release of inorganic phosphate from ATP in the presence of glutathione, spermidine, and magnesium ions. The test can be easily adapted to mass screening as outlined below.
# [2] = target: glutathionylspermidine synthetase (GspS); test: Kinetic analysis of GspS by HPLC determination of the product Gsp; assay type: biochemical, C. fasciculata; conditions: 25.0° C.; for Ki: pH 7.5; for Km: substrates of GspS, rapid equilibrium random-order mechanism, pH 7.5, 5 mM magnesium, read-out: limiting Km (dissociation constant of the quarternary complex)
# Protocol: Production of starting material: C. fasciculata was grown in a medium previously described (27) in a 100-1 fermenter at 27° C. with continuous stirring (200 rpm) and aeration (0.1 vvm). Organisms were harvested in the late logarithmic growth phase by continous flow centrifugation. The pellet was resuspended with 100 mM HEPES buffer (pH 7.5) containing 1 mM DTT and 1 mM MgSO4. After centrifugation the cells were stored at −20° C. GspS, Assay: The assays were carried out at 25.0° C. in a volume of 0.9 ml containing 50 mM Bis-Tris-propane, 50 mM Tris, pH 7.5, 5 mM MgSO4, 1 mM EDTA, 5 mM DTT, 5 mM ATP, 10 mM GSH, and 10 mM spermidine (1). The assay for TS was carried out as described by Smith et al. (1). Aliquots were taken after 20 min. For thiol analysis a precolumn derivatization with the fluorescent thiol-specific reagent, monobromobimane (Calbiochem), was used as described previously (2). All samples for HPLC analysis were diluted four-fold with water. Separation and analytical conditions were as described previously (28). HPLC-analysis was performed with a Jasco-HPLC-system consisting of an autosampler (851-AS), a pump (PU-980), a ternary gradient unit (LG-980-02), and a highly sensitive fluorescence detector (FP-920), which enabled a precise analysis of the small product peak in the presence of numerous other and larger ones. An external standard (0.04 mM Gsp) was used for integration calibration of the samples.
# All kinetic experiments were carried out at 25.0° C. in a volume of 0.9 ml containing 50 mM Bis-Tris-propane, 50 mM Tris, pH 7.5, 1 mM EDTA, 5 mM DTT and variable concentrations of ATP (0.10, 0.13, 0.18, 0.28, 0.66 mM ATP), GSH (0.36, 0.47, 0.66, 1.11, 3.57 mM GSH), and spermidine (0.36, 0.47, 0.66, 1.11, 3.57 mM spermidine), respectively. The enzymatic tests for kinetic studies except the ADP inhibition studies were performed in the presence of phosphoenolpyruvate (10 mM) and pyruvate kinase (0.5 units). A fixed magnesium concentration of 5 mM and a GspS content of 0.072 mg (0.923 μM) was used. Aliquots were taken at 15 min and 30 min. GspS activity was analyzed by product determination as described in example 1.
Compound,Km [2] [µM],also measured
Nc1ncnc2c1ncn2[C@@H]1O[C@H](COP(=O)(O)OP(=O)(O)O)[C@@H](O)[C@H]1O [ADP],,"inhibition of GspS [1]: significantly inhibits; Ki ([2]; inhibition of GspS, competitive with respect to ATP, no ATP regenerating system): 80 µM"
"N[C@@H](CCC(=O)N[C@@H](CS)C(=O)NCC(=O)O)C(=O)O [GSH, glutathione]",2510 ± 330,
"N[C@@H](CCC(=O)N[C@@H](CS)C(=O)NCC(=O)NCCCCNCCCNC(=O)CNC(=O)[C@H](CS)NC(=O)CC[C@H](N)C(=O)O)C(=O)O [TSH, N^1, N^8-bis(glutathionyl)spermidine]",,"Ki ([2]; feed-back inhibition of GspS, competed by GSH): 480 µM"
NCCCCNCCCN [spermidine],470 ± 90,
adenosyltriphosphate [Mg^2+-ATP],250 ± 20,
